Results published in PMC4038355 (Molecular microbiology, 2014).

Target: T1, TstT (LVIS_0852) (Levilactobacillus brevis, UniProt Q03S28)
T1 sequence (Q03S28 1-120): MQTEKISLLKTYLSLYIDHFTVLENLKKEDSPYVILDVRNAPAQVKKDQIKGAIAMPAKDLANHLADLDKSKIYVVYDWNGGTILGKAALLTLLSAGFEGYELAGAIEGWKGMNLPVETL
Type: biochemical

O=S(O)O [sulfite]
% decrease at 100 μM: 40%
